# Columns and labels:
# mice = assay: Writhing Assay (PBQ-induced writhing); format: in vivo; conditions: for WRITHING ASSAY Number Out of Ten I.G. / WRITHING ASSAY Number Out of Ten S.C.: number of mice out of ten with analgesia, 30 minutes before PBQ i.p., male albino mice; for WRITHING ASSAY Number Out of Ten I.G.: 30 mg per kilogram intragastric; for WRITHING ASSAY Number Out of Ten S.C.: 30 mg per kilogram subcutaneous
# From the text: The Writhing Assay is one of the most widely-used experimental procedures for measuring the analgesic activity of different narcotic and nonnarcotic analgesic agents, and involves the continuous, chemically-induced pain of visceral origin to an animal, such as a mouse orrat. [Gyires et al., Arch. int. Pharmacodyn, 267, 131-140 (1984); C. Vander Wende et al., Fed. Proc., 15, 494 (1956); Koster et al., Fed. Proc., 18, 412 (1959); and Witken et al., J. Pharmacol. exp. Ther., 133, 400-408 (1961).] Chemicals which may be used to induce this pain include phenylbenzoquinone (PBQ) and acetic acid. As a result of the chemical irritation to the animal, a characteristic stretching and writhing of the animal (dorsiflexion of the animal's back, extension of its hindlimbs and the strong contraction of its abdominal musculature) will generally occur. […] Drugs which reduce the number of writhes of the animal appear to restore the normal nociceptive threshold of the animal.
# Charles River male albino mice, weighing 20 to 30 grams were used in this assay.
# Thirty minutes after subcutaneous or intragastric administration to ten mice of 30 mg per kilogram of body weight of a compound of the present invention ("test compound"), […] per 10 g of body weight of a 0.025% w/v solution of PBQ was injected intraperitoneally into each mouse. Ten mice which were given saline in place of a test compound of the invention were used as a control group.
# Five minutes later, each mouse was individually placed into a glass beaker for observation, and the number of writhes occurring during the following ten-minute period was counted.
# A test compound was considered to have produced analgesia in a mouse if, in accordance with the conditions set forth above, and under the test criteria employed for this assay, after the administration of 30 mg per kilogram of body weight of a compound of the present invention to the mouse, the number of writhes elicited by a mouse injected with PBQ was equal to, or less than, one-half the median number of writhes recorded for the saline-treated control group of mice that day, as described by Taber in "Predictive Value of Analgesic Assays in Mice and Rats," Advances in BiochemicaI Psychopharmacology, 8, 191 (1974).
# The results for the particular compounds of the present invention analyzed in this assay, and discussed in the examples identified below which correspond thereto, are presented in Table 1 hereinbelow under the heading "WRITHING ASSAY." The numbers in fractions indicate the number of mice out of ten in which a test compound produced analgesia. […] (b) Prostaglandin (PGE) Antagonism Assay
# [1] = target: T1, prostaglandin E2-induced contractions of segments of guinea pig ileum (Cavia porcellus, UniProt A0A286XHJ6); assay: Prostaglandin (PGE) Antagonism Assay in guinea pig ileum; format: cell-based; conditions: pA2 against prostaglandin E2-induced contractions; initial concentration 3 micromolar; estimated or by Schild plot
# T1 construct: Segments of ileum about 2 cm long were then cut and mounted in a 10 mL tissue bath; from tissue; host or cells: guinea pig ileum segments
# T1 sequence (A0A286XHJ6 1-405): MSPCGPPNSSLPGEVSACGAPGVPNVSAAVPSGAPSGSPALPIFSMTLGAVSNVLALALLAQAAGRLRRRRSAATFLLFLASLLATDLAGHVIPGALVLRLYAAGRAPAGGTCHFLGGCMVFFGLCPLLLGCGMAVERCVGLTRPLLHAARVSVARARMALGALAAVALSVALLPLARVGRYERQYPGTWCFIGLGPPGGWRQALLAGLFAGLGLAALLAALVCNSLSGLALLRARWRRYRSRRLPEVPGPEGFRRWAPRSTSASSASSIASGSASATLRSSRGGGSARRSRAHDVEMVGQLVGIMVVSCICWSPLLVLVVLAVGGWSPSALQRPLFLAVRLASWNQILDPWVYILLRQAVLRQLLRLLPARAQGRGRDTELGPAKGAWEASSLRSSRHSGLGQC
# Procedure: In order to determine the effectiveness of several of the compounds of the present invention ("test compounds") as prostaglandin E2 antagonists,a prostaglandin antagonism assay was conducted, as described below, to determine the ability of these compounds to inhibit prostaglandin E2 -induced contractions of segments of guinea pig ileum.
# Male albino guinea pigs weighing 200 to 500 grams were sacrificed by cervical dislocation. The ilea were then quickly removed from the guinea pigs and placed in a modified Tyrode solution, a solution which is known to those skilled in the art, containing one-half of the usual amount of magnesium ions.
# Segments of ileum about 2 cm long were then cut and mounted in a 10 mL tissue bath containing the modified Tyrode solution. The solution was maintained at 37° C. and aerated with a gaseous mixture of 95% oxygen and 5% carbon dioxide. Data for a control prostaglandin E2 dose response curve plotting concentration of prostaglandin E2 versus the intensity of contractions, detected isotonically, was then obtained by experimentally adjusting the dose of the prostaglandin E2 being injected into the tissue bath, in a manner known by those of skill in the art.
# Solutions or suspensions containing an initial concentration (3 micromolar) of a test compound in modified Tyrode solution ("test solutions/suspensions") were then separately substituted for the control bath solution. Each test solution/suspension was then kept in constant contact with the ileum tissue, except for brief periods to drain the bath in preparation for rinsing with fresh test solution/suspension. A second prostaglandin E2 dose response curve was then generated for prostaglandin E2 in the presence of a test compound.
# A dose ratio of EC50 doses was then calculated from the results of each test in a manner known by those of skill in the art. A test compound was determined to be "active" if the initial concentration used yielded at least a two-fold shift (dose ratio greater than or equal to 2) in the dose response curve for 10 prostaglandin E2.
smiles,measurement,setting,value
"CCS(=O)(=O)CCC(=O)NNC(=O)N1c2cc(Cl)ccc2Oc2ccccc2C1C (stereo not drawn) [Example 13, 8-chloro-11-methyldibenz[b,f][1,4]oxazepine-10(11H)-carboxylic acid, 2-[3-(ethylsulfonyl)-1-oxopropyl]hydrazide]",WRITHING ASSAY Number Out of Ten I.G.,mice,5/10
same,WRITHING ASSAY Number Out of Ten S.C.,mice,5/10
same,PGE ANTAGONISM IN GUINEA PIG ILEUM (pA2 value),[1],6.03
"CCS(=O)(=O)CCC(=O)NNC(=O)C1c2ccccc2Oc2ccc(Cl)cc2N1C(=O)OC(C)(C)C (stereo not drawn) [Example 7, 8-chlorodibenz[b,f][1,4]oxazepine-10,11(11H)-dicarboxylic acid, 10-(1,1-dimethylethyl) ester, 11-[2-[3-(ethylsulfonyl)-1-oxopropyl]hydrazide]]",relative analgesic potency in the Writhing Assay,"mice; among the compounds of the invention tested, 30 mg per kilogram, mice",most potent
same,WRITHING ASSAY Number Out of Ten I.G.,mice,5/10
same,WRITHING ASSAY Number Out of Ten S.C.,mice,3/10
"CCC1c2ccccc2Oc2ccc(Cl)cc2N1C(=O)NNC(=O)CCS(=O)(=O)CC (stereo not drawn) [Example 17, 8-chloro-11-ethyldibenz[b,f][1,4]oxazepine-10(11H)-carboxylic acid, 2-[3-(ethylsulfonyl)-1-oxopropyl]hydrazide]",WRITHING ASSAY Number Out of Ten I.G.,mice,1/10
same,WRITHING ASSAY Number Out of Ten S.C.,mice,2/10
same,Kb,[1],1290 nM
"CCCC1c2ccccc2Oc2ccc(Cl)cc2N1C(=O)NNC(=O)CCS(=O)(=O)CC (stereo not drawn) [Example 21, 8-chloro-11-propyldibenz[b,f][1,4]oxazepine-10(11H)-carboxylic acid. 2-[3-(ethylsulfonyl)-1-oxopropyl]hydrazide]",WRITHING ASSAY Number Out of Ten I.G.,mice,3/10
same,WRITHING ASSAY Number Out of Ten S.C.,mice,1/10
same,PGE ANTAGONISM IN GUINEA PIG ILEUM (pA2 value),[1],5.94

# — US5324722A, “2-, 3-, 5-, 8-, 10- and/or 11-substituted dibenzoxazepine compounds, pharmaceutical compositions and methods for treating pain” (G. D. Searle & Co., priority 1993, dated 1994)
